Experimental data: PMC10287566, “Signaling-specific inhibition of the CB1 receptor for cannabis use disorder: phase 1 and phase 2a randomized trials” (Nature Medicine, 2023)

Key:
DIO mice = test: Food intake and body weight in diet-induced obese mice, repeated treatment; assay type: in vivo; settings: mice, acute and repeated 28 d, highest dose tested 15 mg/kg
Method: Body weight and food intake were studied because they are reduced by repeated treatment with rimonabant both in mice[31] and in humans. DIO mice were used because the effects of CB1 antagonists are of greater amplitude in obese mice than in lean mice. Male C57BL/6J mice (8 weeks old) were fed ad libitum with a high-fat diet (HFD) for 8 weeks before the start of the pharmacological treatments. During pharmacological treatments, the HFD was maintained, and food intake and body weight were measured daily. The food consumed was calculated by subtracting the food left in the hoppers from the initial pre-weighed amount.

rats = test: Irwin test and body temperature (GLP); assay type: in vivo; settings: rats, 2, 9 and 36 mg kg^−1 oral
Method: The study involved four groups of six male Wistar rats weighing between 154.0 g and 185.9 g. […] On study day, animals were first scored by the Irwin standardized observation battery, and body temperature was measured. […] Irwin scores and measurement of body temperature were done again at 1, 3, 6, 8 and 24 h after dose.

COc1ccc(CO[C@H]2CC[C@@]3(C)C(=CC[C@H]4[C@@H]5CC[C@H](C(C)=O)[C@@]5(C)CC[C@@H]43)C2)cc1 [AEF0117, 3β-(4-methoxybenzyloxy)pregn-5-en-20-one]
Overall effect: inhibition of spontaneous food-intake (DIO mice): No
effect on spontaneous behavior in the home cage (Irwin test) (rats): had no effect
